Measurements from patent US8420657B2 (Novartis AG, priority 2008, dated 2013).

What was measured:
[1] = tested on: JAK2-dependent nuclear translocation of STAT5-GFP in U-2 OS osteosarcoma cells; assay: STAT5 nuclear translocation assay (Cellomics), rhEpo stimulated U-2 OS STAT5-GFP cells; type: cell-based; details: Homo sapiens, U2OS; STAT5 translocation pathway
Excerpt: The medium-throughput (96-well format) cellular automated fluorescence microscopy Cellomics assay can be routinely used to assess the functional activation of Janus Kinases (JAKs), based on the nuclear translocation of their substrate, Signal Transducer and Activator of Transcription (STAT). Nuclear translocation can be monitored either in HT1080 fibrosarcoma cells stably transfected with STAT1 fused to Green Fluorescence Protein (GFP) or in U-2 OS osteosarcoma cells stably transfected with STAT5 fused to Green Fluorescence Protein (GFP). Stimulation of HT1080 cells with interferon-γ (IFN-γ) results in JAK1/JAK2-dependent nuclear translocation of STAT1-GFP, whereas stimulation of U-2 OS cells with recombinant human erythropoietin (rhEpo) results in JAK2-dependent nuclear translocation of STAT5-GFP, both of which can be quantified using the Cellomics Cyto/NucTrans software package. This assay may be used to provide an assessment of the nuclear-cytoplasmic differential (NCD) of STAT-GFP using Hoechst dye to define the boundaries of the nucleus.
U-2 OS osteosarcoma cells may be obtained from ATCC and can be cultured in standard RPMI medium supplemented with 10% FCS and 2 mM L-glutamine. Cells can be stably transfected with STAT5a-GFP using Lipofectamine following the manufacturers' protocol. 24 hours after transfection the medium can be replaced and selected in 400 μg/ml Geneticin. Subsequently, cells can be stably transfected with EpoR using Lipofectamine following the manufacturers' protocol. 24 hours after transfection the medium can be replaced and cells selected in 100 μg/ml Hygromycin B.
Compounds can be dissolved in DMSO to a final stock concentration of 10 mM and stored as aliquots at 4° C. Compounds may be pre-diluted in 100% DMSO at 10 mM, 3 mM 1 mM, 0.3 mM, 0.1 mM, 0.03 mM, 0.01 mM and 0.003 mM. Subsequently, compounds may be diluted in medium and added in 50 μl to the cells. The final compound concentrations tested may be 10 μM, 3 μM 1 μM, 0.3 μM, 0.1 μM, 0.03 μM, 0.01 μM and 0.003 μM and the final DMSO concentration can be 0.1%.
U-2 OS may be seeded at a cell density of 12,000 cells per well in clear-bottom black 96-well Packard View-Plates™. The following day, medium can be removed and replaced with medium containing either the vehicle (DMSO) or increasing concentrations of test compounds for 30 minutes at 37° C. Cells can then be stimulated for 1 hour by adding 10 μl per well of 50 U/ml rhEpo to obtain 5 U/ml of rhEpo as the final concentration. Following treatments, cells can fixed and processed as described above.
The plates can be read on a Cellomics® ArrayscanII automated fluorescence microscope plate reader equipped with a Mercury-Xenon white light illumination source and a Zeiss Axiovert inverted microscope, using the XF100 dichroic/emission filter cube and matching excitation filters, 10× magnification, and a 0.3 numerical aperture objective. Image acquisition and analysis can be performed using a customized protocol based on the ‘NuclearTranslocation’ Bioapplication. For each well, multiple images (fields) can be acquired until a minimum of 1000 cells are counted using two 2 channels: Channel 1 (Hoechst)=focus+nuclear mask, Channel 2 (GFP)=signal quantification in mask areas as outlined below. Nuclei may be first identified based on the Hoechst staining and a mask generated for each nucleus that then serves as a template to generate a circle (eroded inwards by 1 pixel) and a 3 pixel-wide collar-like ring (off-set outwards by 1 pixel), in which the nuclear and cytoplasmic intensity of GFP, respectively, are quantified in the corresponding channel. High content analysis yields numerous measurements per cell and the GFP intensity differential between the nuclear and the cytoplasmic masks may be chosen as a measure of sub-cellular STAT-GFP relocation. The resulting values may be averaged for all cells in the well to return a single measurement plus standard deviation. […]

GST-JAK2(808-1132) = biological target: T1, GST-JAK2(808-1132) (Homo sapiens, UniProt O60674); assay: JAK2 kinase assay (Caliper mobility shift, LabChip 3000); type: biochemical
T1 construct: GST-JAK2(808-1132); purchased Invitrogen (Carlsbad, USA) #4288
T1 sequence (O60674 808-1132): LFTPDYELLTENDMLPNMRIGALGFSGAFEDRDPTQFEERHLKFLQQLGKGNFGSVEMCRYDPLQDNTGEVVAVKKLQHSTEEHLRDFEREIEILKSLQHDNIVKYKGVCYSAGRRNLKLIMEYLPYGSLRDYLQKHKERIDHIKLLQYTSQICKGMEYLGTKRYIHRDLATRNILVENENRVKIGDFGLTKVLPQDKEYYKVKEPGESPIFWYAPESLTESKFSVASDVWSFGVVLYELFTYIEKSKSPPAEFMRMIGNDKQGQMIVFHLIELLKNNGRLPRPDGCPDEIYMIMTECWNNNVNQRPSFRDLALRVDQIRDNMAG
In short: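 Eight-point compound series (final 10–0.003 μM) tested on purchased GST-JAK2 kinase domain (808-1132). Peptide FITC-JAK3tide plus ATP reacted 60 min, 30 °C, then quenched with EDTA; turnover from charge-based separation of substrate and product.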

Compound	IC50 [1]	IC50 (GST-JAK2(808-1132))
Cc1ccc(Nc2ncc3ccn(-c4cc(F)c(CN5CCOCC5)c(F)c4)c3n2)cc1CN1CCN(C)CC1 [Example 331, [7-(3,5-Difluoro-4-morpholin-4-ylmethyl-phenyl)-7H-pyrrolo[2,3-d]pyrimidin-2-yl]-[4-methyl-3-(4-methyl-piperazin-1-ylmethyl)-phenyl]-amine]	2.8 nM	≤ 3 nM
Cc1ccc(Nc2ncc3ccn(-c4ccc(S(=O)(=O)NC(C)(C)C)cc4)c3n2)cc1CN1CCN(C)CC1 [Example 353, N-tert-Butyl-4-{2-[4-methyl-3-(4-methyl-piperazin-1-ylmethyl)-phenylamino]-pyrrolo[2,3-d]pyrimidin-7-yl}-benzenesulfonamide]	17 nM	4.9 nM
Cc1ccc(Nc2ncc3ccn(-c4cc(F)c(CN5CCOCC5)c(F)c4)c3n2)cc1CN1CCOC2(COC2)C1 [Example 358, [7-(3,5-Difluoro-4-morpholin-4-ylmethyl-phenyl)-7H-pyrrolo[2,3-d]pyrimidin-2-yl]-[3-(2,5-dioxa-8-aza-spiro[3,5]non-8-ylmethyl)-4-methyl-phenyl]-amine]	59 nM	7.2 nM
Cc1ccc(Nc2ncc3ccn(-c4ccc(C(=O)N5CCOCC5)c(F)c4)c3n2)cc1CN1CCOC2(COC2)C1 [Example 359, (4-{2-[3-(2,5-Dioxa-8-aza-spiro[3,5]non-8-ylmethyl)-4-methyl-phenylamino]-pyrrolo[2,3-d]pyrimidin-7-yl}-2-fluoro-phenyl)-morpholin-4-yl-methanone]	135 nM	7.4 nM
C[C@@H]1CN(c2ccc(Nc3ncc4ccn(-c5cc(F)c(CN6CCOC7(COC7)C6)c(F)c5)c4n3)cn2)C[C@H](C)N1 [Example 360, [6-(cis-3,5-Dimethyl-piperazin-1-yl)-pyridin-3-yl]-{7-[4-(2,5-dioxa-8-aza-spiro[3,5]non-8-ylmethyl)-3,5-difluoro-phenyl]-7H-pyrrolo[2,3-d]pyrimidin-2-yl}-amine]	7.2 nM	3.3 nM
O=C(c1cc(Nc2ncc3ccn(-c4cc(F)c(CN5CCOCC5)c(F)c4)c3n2)ccn1)N1CCOC2(COC2)C1 [Example 362, {4-[7-(3,5-Difluoro-4-morpholin-4-ylmethyl-phenyl)-7H-pyrrolo[2,3-d]pyrimidin-2-ylamino]-pyridin-2-yl}-(2,5-dioxa-8-aza-spiro[3.5]non-8-yl)-methanone]	152 nM	24 nM
Cc1ccc(Nc2ncc3ccn(-c4ccc(C(=O)N5CCOCC5)c(F)c4)c3n2)cc1CN1CCN(C2CC2)CC1 [Example 366, (4-{2-[3-(4-Cyclopropyl-piperazin-1-ylmethyl)-4-methyl-phenylamino]-pyrrolo[2,3-d]pyrimidin-7-yl}-2-fluoro-phenyl)-morpholin-4-yl-methanone]	65 nM	8.6 nM
Cc1ccc(Nc2ncc3ccn(-c4cc(F)c(CN5CCOCC5)c(F)c4)c3n2)cc1CN1CCN(C=O)CC1 [Example 370, 4-{5-[7-(3,5-Difluoro-4-morpholin-4-ylmethyl-phenyl)-7H-pyrrolo[2,3-d]pyrimidin-2-ylamino]-2-methyl-benzyl}-piperazine-1-carbaldehyde]	31.3 nM	≤ 3 nM

The remaining compounds from weak to strong by IC50 [1], led by results:

IC50 [1]	IC50 (GST-JAK2(808-1132))	Compound
260 nM	23 nM	CN1CCN(C(=O)c2cc(Nc3ncc4ccn(-c5cc(F)c(CN6CCOCC6)c(F)c5)c4n3)ccn2)CC1 [Example 361, {4-[7-(3,5-Difluoro-4-morpholin-4-ylmethyl-phenyl)-7H-pyrrolo[2,3-d]pyrimidin-2-ylamino]-pyridin-2-yl}-(4-methyl-piperazin-1-yl)-methanone]
144 nM	8.4 nM	Cc1ccc(Nc2ncc3ccn(-c4ccc(C(=O)N5CCOCC5)c(F)c4)c3n2)cc1CN1C[C@@H](C)N[C@@H](C)C1 [Example 367, (4-{2-[3-(cis-3,5-Dimethyl-piperazin-1-ylmethyl)-4-methyl-phenylamino]-pyrrolo[2,3-d]pyrimidin-7-yl}-2-fluoro-phenyl)-morpholin-4-yl-methanone]
135 nM	13 nM	C[C@@H]1CN(C(=O)c2cc(Nc3ncc4ccn(-c5cc(F)c(CN6CCOCC6)c(F)c5)c4n3)ccn2)C[C@H](C)N1 [Example 371, {4-[7-(3,5-Difluoro-4-morpholin-4-ylmethyl-phenyl)-7H-pyrrolo[2,3-d]pyrimidin-2-ylamino]-pyridin-2-yl}-(cis-3,5-dimethyl-piperazin-1-yl)-methanone]
57 nM	≤ 3 nM	C[C@@H]1CN(c2ccc(Nc3ncc4ccn(-c5ccc(S(N)(=O)=O)cc5)c4n3)cn2)C[C@H](C)N1 [Example 369, 4-{2-[6-(cis-3,5-Dimethyl-piperazin-1-yl)-pyridin-3-ylamino]-pyrrolo[2,3-d]pyrimidin-7-yl}-benzenesulfonamide]
43 nM	4.6 nM	Cc1ccc(Nc2ncc3ccn(-c4cc(F)c(CN5CCOCC5)c(F)c4)c3n2)cc1CN1CCN(C2CC2)CC1 [Example 365, [3-(4-Cyclopropyl-piperazin-1-ylmethyl)-4-methyl-phenyl]-[7-(3,5-difluoro-4-morpholin-4-ylmethyl-phenyl)-7H-pyrrolo[2,3-d]pyrimidin-2-yl]-amine]
22.1 nM	≤ 3 nM	Fc1cc(-n2ccc3cnc(Nc4ccnc(OCCN5CCOCC5)c4)nc32)cc(F)c1CN1CCOCC1 [Example 352, [7-(3,5-Difluoro-4-morpholin-4-yl methyl-phenyl)-7H-pyrrolo[2,3-d]pyrimidin-2-yl]-[2-(2-morpholin-4-yl-ethoxy)-pyridin-4-yl]-amine]
21.8 nM	≤ 3 nM	Fc1cc(-n2ccc3cnc(Nc4ccnc(OC5CCOCC5)c4)nc32)cc(F)c1CN1CCOCC1 [Example 350, [7-(3,5-Difluoro-4-morpholin-4-ylmethyl-phenyl)-7H-pyrrolo[2,3-d]pyrimidin-2-yl]-[2-(tetrahydro-pyran-4-yloxy)-pyridin-4-yl]-amine]
11 nM	3.2 nM	CC(C)(C)NS(=O)(=O)c1ccc(-n2ccc3cnc(Nc4ccc(OCCN5CCCC5)cc4)nc32)cc1 [Example 363, N-tert-Butyl-4-{2-[4-(2-pyrrolidin-1-yl-ethoxy)-phenylamino]-pyrrolo[2,3-d]pyrimidin-7-yl}-benzenesulfonamide]
5.3 nM	3.7 nM	Cc1ccc(Nc2ncc3ccn(-c4cc(F)c(CN5CCOCC5)c(F)c4)c3n2)cc1CN1C[C@@H](C)N[C@@H](C)C1 [Example 355, [7-(3,5-Difluoro-4-morpholin-4-yl methyl-phenyl)-7H-pyrrolo[2,3-d]pyrimidin-2-yl]-[3-(cis-3,5-dimethyl-piperazin-1-ylmethyl)-4-methyl-phenyl]-amine]
2.8 nM	≤ 3 nM	Cc1cc(Nc2ncc3ccn(-c4cc(F)c(CN5CCOCC5)c(F)c4)c3n2)ccc1[C@H]1CCCN1 [Example 346, [7-(3,5-Difluoro-4-morpholin-4-ylmethyl-phenyl)-7H-pyrrolo[2,3-d]pyrimidin-2-yl]-((R)-3-methyl-4-pyrrolidin-2-yl-phenyl)-amine]
1.3 nM	4.3 nM	C[C@@H]1CN(c2ccc(Nc3ncc4ccn(-c5ccc(S(=O)(=O)NC(C)(C)C)cc5)c4n3)cn2)C[C@H](C)N1 [Example 351, N-tert-Butyl-4-{2-[6-(cis-3,5-dimethyl-piperazin-1-yl)-pyridin-3-ylamino]-pyrrolo[2,3-d]pyrimidin-7-yl}-benzenesulfonamide]
